Assay: Biodistribution of radiolabelled DTPA complexes in normal rats, compared with 99mTc-DTPA positive control
Assay type: in vivo
Conditions: normal Sprague-Dawley rats, 111In-labelled complex; for biodistribution of the complex (comparison with reference complex): time points 15 minutes, 60 minutes, 120 minutes, 24 hours
Procedure: Commercially available DTPA kit (Draximage Co., Ontario, Canada) was labeled with ^99mTc by the standard procedure described in the package insert that was supplied with the kit, and was administered to Sprague-Dawley rats (3 rats for each time point of 15 minutes, 60 minutes, 120 minutes, and 24 hours).
A mixture of the stock solution of DTPA-mono(7-amino-4-methylcoumarin)amide ligand (1 mg/mL in 0.5M sodium acetate buffer, 100 μL), obtained from Gunma University, Japan (Ozaki, et. al. Reference 30), sodium acetate solution (0.5M, 100 μL), and commercially available ^111InCl3 solution (0.1M HCl, 100-200 μCi/100 μL) was adjusted to pH 4.5 and incubated at ambient temperature for 30 minutes. The resulting indium complex was purified by reverse phase HPLC and administered to Sprague-Dawley rats. The biodistribution was carried out in the same manner as that of ^99mTc-DTPA in Example 1 (FIG. 8).

biodistribution of the complex (comparison with reference complex) | Substance | hepatobiliary clearance (relative to reference complex)
nearly identical to that of ^99mTc-DTPA | ^111In-DTPA-mono(pyrazinylamino)ethylamide complex [Example 7] | –
nearly identical to that of ^99mTc-DTPA | ^111In-DTPA-bis(salicylamide) complex [Example 6] | –

More lines, now with the values behind:

Substance | biodistribution of the complex (comparison with reference complex) | hepatobiliary clearance (relative to reference complex)
^111In-DTPA-mono(1-naphthylamide) complex [Example 4] | nearly identical to that of ^99mTc-DTPA | –
^111In-DTPA-mono(salicylamide) complex [Example 3] | nearly identical to that of ^99mTc-DTPA | –
^111In-HMDTPA-1-naphthylurethane complex [Example 5] | – | much higher hepatobiliary clearance
^111In-DTPA-mono(quinoxanylamino)ethylamide complex [Example 8] | nearly identical to that of the DTPA-coumarin derivative in Example 2 | –

Reference: patent US7674902B2, “Luminescent metal complexes for monitoring renal function” (priority 2004, dated 2010)
